Reference: patent US5364777A, “Method of improving lipase activity using noble gases” (American Air Liquide, priority 1992, dated 1994)

Legend:
[1] = system: triacylglycerol lipase EC 3.1.1.3; test: Lipase L-1754 hydrolysis of p-nitrophenyl caprate, butyrate, caproate under gaseous atmospheres (400 nm); type: biochemical, Candida cylindracea; settings: for Maximum enhancement of lipase activity, PNP-Caproate: substrate PNP-Caproate; for Maximum inhibition of lipase activity, PNP-Butyrate: substrate PNP-Butyrate, 10° C.
Experimental: FIGS. 4-6 show a typical and similar enzyme assay carried out on the same enzyme using PNP-butyrate showing inhibition of activity at 10° C. 25° C. and 35° C., respectively. Significant depression in rate is noted.
(§1) Lipase catalysis of lipid conversion was tested using triglycerides, paranitrophenyl (PNP) acetate, PNP-butyrate, PNP-caprate, PNP-caprylate, PNP-caproate, olive oil, standard lipids and triglycerides, and other lipids. […]
(§2) Testing Of An Adequate Procedure
(§3) To Follow Lipase L-1754/p-Nitrophenyl
caprate N-0252, p-Nitrophenyl butyrate N-9876, p-Nitrophenyl
caproate N-0502, p-Nitrophenyl caprylate N-0752
PURPOSE: Testing protocol to follow Lipase L-17,54 using p-
ENZYME: Lipase (Sigma No. L-1754)
Type VII from Candida cylindracea w/ 30% lactose
p-Nitrophenyl caprate (Sigma No. N-02521)
p-Nitrophenyl butyrate (Sigma No. N-9876)
p-Nitrophenyl caproate (Sigma No. N-0502)
Results: We will do gas runs using p-nitrophenyl caproate and
p-nitrophenyl caprate as substrates. These will be compared to
p-nitrophenyl caproate N-0502
p-nitrophenyl caprate N-0252

[2] = system: triacylglycerol lipase EC 3.1.1.3; test: Lipase hydrolysis of p-nitrophenyl acetate under gaseous atmospheres (spectrophotometric, 400 nm); type: biochemical, Rhizonus arrhizus; settings: substrate PNP-Acetate, +25° C.
Experimental: FIGS. 1-3 show a typical enzyme assay carried out at 10, 25 and 35 degrees °C. for triacylglycerol lipase catalysts of paranitrophenol acetate hydrolysis.
as §1, §2, §3
Effect of Air, Ne, Ar, Kr, Xe, N2 and O2 on
Lipase L-1754 using p-nitrophenyl acetate
ENZYME: Lipase (Sigma No. L-4384)
Type XI from Rhizonus arrhizus
p-Nitrophenyl acetate (Sigma No. N-8130)
8 DIFFERENT GASEOUS ATMOSPHERES:
3 DIFFERENT TEMPERATURES:
R = 2.0 ml Soln D + 0.5 ml Soln A
fill the cuvettes with 2.0 ml of (p-nitrophenyl
Fill 8 serum vials with 5.0 ml of (lipase
Bubble 10x10cc of the appropriate gas in T1G1 ... 5
Bubble 10xl0cc of the appropriate gas in G1 ... 5
Remove G1 ... 5 serum vials from fridge. Sample soln

For [Ar] [Ar, argon], the “Maximum enhancement of lipase activity, PNP-Caprate” value ([1]; substrate PNP-Caprate, 35° C.) was “+14%” and the “Maximum enhancement of lipase activity, PNP-Caproate” value ([1]; 25° C.) was “+37%”.
With [Kr] [Kr, krypton] the “Maximum inhibition of lipase activity, PNP-Butyrate” value [1] was -25% and the “Maximum enhancement of lipase activity, PNP-Acetate” value [2] was “+11%”.
For [Xe] [Xe, xenon], the “Maximum inhibition of lipase activity, PNP-Butyrate” value [1] was 26% and the “Maximum enhancement of lipase activity, PNP-Caproate” value ([1]; +35 degrees) was “+23%”.
